For one assay, the system named is LRP5/6. In words: Immunostaining of phosphorylated PPPSP motif of LRP5/6 in rat trabecular bone. The class given is in vivo. As to conditions: rats, single PTH injection. How it is done: To further examine whether LRP5/6 mediates PTH-elevated β-catenin levels in vivo, trabecular bone sections were immunostained with the antibody against phosphorylated PPPSP motif. Formalin-fixed tissue sections of 5 μm thickness were deparaffinized in xylene and rehydrated in graded alcohols. Antigen retrieval was achieved by incubating tissue sections in boiling 10 mmol/L citrate buffer (pH 6.0) for 5 minutes in a microwave oven. All sections were then incubated with hydrogen peroxide for 5 minutes. Subsequently, sections were incubated with the primary antibodies against β-catenin or LRP6 1490 for 1 hour at room temperature. After rinsing the primary antibody in T-PBS, antibody detection was accomplished using the Super Sensitive biotin-streptavidin horseradish peroxidase detection kit (Biogenex, San Ramon, Calif.). The diaminobenzidine tetrachloride Super Sensitive substrate kit (Biogenex, San Ramon, Calif.) was used to visualize the antibody-antigen complex. The sections were then counterstained with hematoxylin. Appropriate negative controls, consisting of tissue sections of each case processed without the addition of primary antibody, were prepared along with positive multitissue control sections. Only those cases with greater than 10% immunohistochemical stains were considered as positive. Assessment of the immunohistochemical staining was performed independently by two pathologists. Contrasting results were discussed until an agreement was reached.
The pattern of phosphorylated LRP5/6 was correlated with the changes of β-catenin levels induced by PTH in Rat osteoblasts.

A further assay relates to β-catenin. In words: β-catenin protein levels in HEK293 cells. The class given is cell-based. As to conditions: different concentrations and time points. How it is done: In parallel, proteins from cytosolic and nuclear fractions were isolated from the UMR 106 cells after a 30 minute treatment with control medium, Wnt-3a conditioned medium, or 5×10^−7 M PTH (1-84). The proteins were transferred to a blotting membrane, and the immunoblots were stained with an anti-β-catenin antibody or antibody to a control protein (α-tubulin or histone). […] Moreover, cytosolic and nuclear β-catenin protein levels also were examined in embryonic kidney epithelial cells (HEK293) that were treated with different concentrations of PTH and harvested at different time points.

Assay [1] deals with T1, TGFβRII/PTH1R interaction (Homo sapiens, UniProt P37173+Q03431).
T1 construct: The 293T cells endogenously expressed TGFβRII; endogenous in cells; host or cells: 293T
In words: Co-immunoprecipitation of TGFβRII and PTH1R in 293 cells. As to conditions: cotransfected HEK293 cells; 10% FBS medium; PTH stimulation. The class given is cell-based. The protocol: Human embryonic kidney 293T cells in DMEM with 10% serum were treated with vehicle (water), TGF-β (2 ng/ml), or PTH (1-34) (50 nM) for 24 hours. The 293T cells endogenously expressed TGFβRII. The cells were cultured in DMEM with 10% serum and were split at 30%-40% confluent.
Immunoprecipitation assays were performed as described previously (Shi et al., 2004, J. Cell. Biol. 164:291-300). TGFβRII was immunoprecipitated from the cell extracts using anti-TGFβRII antibody (Santa Cruz Biotechnology, Inc.; 1:250 dilution), and the immunocomplex was detected by Western blotting with an antibody specific for PTH1R (Santa Cruz Biotechnology, Inc.; 1:200 dilution) to detect PTH1R protein. […] Furthermore, the interaction of PTH1R with TGFβRII can be in the form of monomers or dimers.
Next, the interaction was examined using a biochemical approach. PTH1R-HA was contransfected in HEK293 cells with Flag-TβRII. The cell lysate was subjected to HA immunoprecipitation, and associated TβRII was immunoblotted with anti-Flag antibody. TβRII specifically coprecipitated with PTH1R (FIG. 11) in 10% FBS medium, and the interaction was enhanced by PTH stimulation, whereas the kinase-dead mutant of TβRII lost the interaction with PTH1R (data not shown) even with treatment of PTH. The interaction of endogenous PTH1R and TβRII was also examined. […]

The next assay has as its target T2, LRP5 (Homo sapiens, UniProt O75197).
T2 construct: expressed in transfected cells; host or cells: HEK293
In words: LRP5 PPPSP phosphorylation in HEK293 cells (Ab1490 Western blot). The class given is cell-based. As to conditions: HEK293 cells transfected with HA-tagged LRP5; at 45 minutes; 5×10^−7 M PTH (1-84). How it is done: HEK293 cells transfected with HA-tagged LRP5 were treated with conditioned medium containing Wnt-3a (lane 1), control medium with 5×10^−7 M PTH (1-84) for the indicated time periods (lane 3-5), or without PTH treatment (lane 2). Phosphorylated LRP5 was detected by Western blotting of the anti-HA immunoprecipitates with Ab1490, which specifically recognizes phosphorylated PPPSP sites within LRP5/6. […] VSVG-tagged LRP6 was cotransfected into HEK 293 cells with HA-Axin and GSK3β, and the cells were treated with or without 10^−7 M PTH (1-84) for the indicated time periods. The LRP6-associated Axin was determined by Western blotting of the anti-VSVG immunoprecipitates with anti-HA antibody. […] The LRP6-associated Axin was determined by Western blotting of the anti-VSVG immunoprecipitates with anti-HA antibody. […] The association of axin with wild type and mutant proteins was determined by Western blotting of the anti-VSVG immunoprecipitates with anti-HA antibody. […] Then luciferase activities were determined.
UMR-106 cells were treated with either PTH or Wnt-3a. The cell lysates were immunoprecipitated for endogenous LRP6, and the precipitated immunocomplexes were detected by Western blotting with an antibody that specifically recognizes the phosphorylated PPPSP motifs (aa, 1490) (Tamai et al., 2004). […]
(A western blot detects proteins with antibodies after separation by electrophoresis.)

The target in assay [2] is T3, LRP6 (Rattus norvegicus, UniProt A0A0G2K0H3).
T3 construct: The cell lysates were immunoprecipitated for endogenous LRP6; endogenous in cells; host or cells: UMR-106
In words: LRP6 phosphorylation at the PPPSP motif (Western blot). In kind it is cell-based. As to conditions: UMR-106 cells, endogenous LRP6; data not shown. The protocol: (§1) UMR-106 cells were treated with either PTH or Wnt-3a. The cell lysates were immunoprecipitated for endogenous LRP6, and the precipitated immunocomplexes were detected by Western blotting with an antibody that specifically recognizes the phosphorylated PPPSP motifs (aa, 1490) (Tamai et al., 2004). […] To further confirm the role of PTH in inducing phosphorylation of LRP5 and LRP6 individually, HEK293 cells were transfected with HA-tagged LRP5, and the phosphorylated LRP5 was detected by Western blotting of the anti-HA immunoprecipitates with Ab1490.
(§2) If the observation is true, then the phosphorylated PPPSP motif will serve as an Axin docking site.

For assay [3], the target named is T4, LRP6 (Homo sapiens, UniProt O75581).
T4 construct: The cell lysates were immunoprecipitated for endogenous LRP6; endogenous in cells; host or cells: UMR-106
The description is as above. In kind it is cell-based. As to conditions: without added GSK3β; data not shown. How it is done:
as §1, §2

T2 sequence (O75197 32-1615, species assumed): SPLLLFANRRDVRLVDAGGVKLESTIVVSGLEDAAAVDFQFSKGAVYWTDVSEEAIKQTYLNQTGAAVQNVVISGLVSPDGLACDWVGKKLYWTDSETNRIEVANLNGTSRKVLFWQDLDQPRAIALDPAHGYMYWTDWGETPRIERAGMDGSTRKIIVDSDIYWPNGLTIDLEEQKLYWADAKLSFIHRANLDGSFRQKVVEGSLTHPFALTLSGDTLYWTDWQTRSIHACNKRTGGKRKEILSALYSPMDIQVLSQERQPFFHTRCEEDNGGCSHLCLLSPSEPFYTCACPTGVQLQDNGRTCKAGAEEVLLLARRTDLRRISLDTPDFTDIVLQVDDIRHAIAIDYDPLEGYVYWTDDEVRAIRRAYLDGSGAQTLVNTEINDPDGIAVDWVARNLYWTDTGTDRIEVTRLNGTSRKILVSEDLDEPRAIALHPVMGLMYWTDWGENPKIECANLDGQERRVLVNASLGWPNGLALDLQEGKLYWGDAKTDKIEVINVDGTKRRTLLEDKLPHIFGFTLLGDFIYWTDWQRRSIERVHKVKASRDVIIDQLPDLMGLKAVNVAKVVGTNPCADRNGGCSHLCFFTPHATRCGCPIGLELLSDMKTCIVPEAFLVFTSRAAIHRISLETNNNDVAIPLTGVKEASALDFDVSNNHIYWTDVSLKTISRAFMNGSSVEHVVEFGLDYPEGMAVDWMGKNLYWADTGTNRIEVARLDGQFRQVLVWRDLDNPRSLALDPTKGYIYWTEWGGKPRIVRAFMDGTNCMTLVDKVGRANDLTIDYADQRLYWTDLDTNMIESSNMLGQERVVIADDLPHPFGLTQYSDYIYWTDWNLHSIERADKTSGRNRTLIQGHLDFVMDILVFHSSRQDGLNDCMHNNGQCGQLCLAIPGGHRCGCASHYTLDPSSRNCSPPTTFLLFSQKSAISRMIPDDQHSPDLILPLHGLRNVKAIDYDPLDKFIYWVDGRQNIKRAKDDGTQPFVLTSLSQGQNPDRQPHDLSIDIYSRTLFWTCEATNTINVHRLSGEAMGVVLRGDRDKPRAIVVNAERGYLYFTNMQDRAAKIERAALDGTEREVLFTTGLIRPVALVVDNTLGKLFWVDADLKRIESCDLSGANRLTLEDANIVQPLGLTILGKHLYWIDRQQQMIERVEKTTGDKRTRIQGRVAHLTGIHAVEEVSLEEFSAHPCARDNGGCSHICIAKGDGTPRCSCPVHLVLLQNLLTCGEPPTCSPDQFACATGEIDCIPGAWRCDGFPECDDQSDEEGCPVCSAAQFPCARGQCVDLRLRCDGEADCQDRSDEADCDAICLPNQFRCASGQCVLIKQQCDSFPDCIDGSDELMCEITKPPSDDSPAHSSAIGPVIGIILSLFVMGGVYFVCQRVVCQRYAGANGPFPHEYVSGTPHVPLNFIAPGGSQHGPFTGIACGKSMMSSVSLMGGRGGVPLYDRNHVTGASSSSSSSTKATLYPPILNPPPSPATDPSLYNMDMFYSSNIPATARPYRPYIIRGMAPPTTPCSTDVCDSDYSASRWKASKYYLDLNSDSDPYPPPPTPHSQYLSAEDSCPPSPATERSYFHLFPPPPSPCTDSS
T3 sequence (A0A0G2K0H3 20-1611): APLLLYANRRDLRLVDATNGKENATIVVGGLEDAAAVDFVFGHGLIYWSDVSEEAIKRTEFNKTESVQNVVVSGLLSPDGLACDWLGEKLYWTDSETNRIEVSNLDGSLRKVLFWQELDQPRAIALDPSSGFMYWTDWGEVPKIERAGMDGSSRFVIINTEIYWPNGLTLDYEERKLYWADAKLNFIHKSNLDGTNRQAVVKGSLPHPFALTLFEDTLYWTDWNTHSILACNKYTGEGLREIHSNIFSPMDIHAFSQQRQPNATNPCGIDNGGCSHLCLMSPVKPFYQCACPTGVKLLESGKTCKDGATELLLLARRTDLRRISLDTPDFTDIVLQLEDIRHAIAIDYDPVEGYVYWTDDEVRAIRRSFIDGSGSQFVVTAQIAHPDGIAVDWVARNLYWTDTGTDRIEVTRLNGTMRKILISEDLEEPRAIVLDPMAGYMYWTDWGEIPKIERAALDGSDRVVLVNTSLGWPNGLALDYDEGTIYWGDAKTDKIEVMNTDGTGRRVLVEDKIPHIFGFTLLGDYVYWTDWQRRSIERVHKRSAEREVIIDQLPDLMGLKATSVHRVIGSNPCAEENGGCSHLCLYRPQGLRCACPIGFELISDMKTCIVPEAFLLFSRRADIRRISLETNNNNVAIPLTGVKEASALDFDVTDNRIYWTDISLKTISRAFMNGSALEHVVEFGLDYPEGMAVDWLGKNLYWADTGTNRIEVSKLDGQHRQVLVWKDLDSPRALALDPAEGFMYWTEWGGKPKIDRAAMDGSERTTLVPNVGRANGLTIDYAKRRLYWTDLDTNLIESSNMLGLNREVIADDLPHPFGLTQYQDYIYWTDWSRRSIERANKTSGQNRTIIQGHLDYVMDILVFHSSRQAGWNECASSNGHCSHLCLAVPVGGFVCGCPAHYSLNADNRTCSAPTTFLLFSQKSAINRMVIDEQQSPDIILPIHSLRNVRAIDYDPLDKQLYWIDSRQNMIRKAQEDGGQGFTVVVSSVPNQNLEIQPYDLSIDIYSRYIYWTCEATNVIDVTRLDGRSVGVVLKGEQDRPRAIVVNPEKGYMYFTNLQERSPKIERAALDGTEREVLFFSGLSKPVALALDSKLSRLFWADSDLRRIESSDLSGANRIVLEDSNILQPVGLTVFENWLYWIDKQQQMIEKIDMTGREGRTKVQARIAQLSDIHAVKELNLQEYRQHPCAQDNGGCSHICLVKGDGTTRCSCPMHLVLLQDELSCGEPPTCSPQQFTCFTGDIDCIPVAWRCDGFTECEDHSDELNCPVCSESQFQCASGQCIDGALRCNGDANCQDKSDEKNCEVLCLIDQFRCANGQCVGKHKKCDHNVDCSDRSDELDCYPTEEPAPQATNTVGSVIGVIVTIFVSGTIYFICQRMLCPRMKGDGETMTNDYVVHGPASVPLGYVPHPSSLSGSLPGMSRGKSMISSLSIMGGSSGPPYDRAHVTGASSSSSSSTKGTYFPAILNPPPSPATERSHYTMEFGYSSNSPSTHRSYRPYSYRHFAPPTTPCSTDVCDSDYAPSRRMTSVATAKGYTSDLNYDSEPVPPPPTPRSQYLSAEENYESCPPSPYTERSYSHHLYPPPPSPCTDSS
T1 sequence (Q03431 27-593): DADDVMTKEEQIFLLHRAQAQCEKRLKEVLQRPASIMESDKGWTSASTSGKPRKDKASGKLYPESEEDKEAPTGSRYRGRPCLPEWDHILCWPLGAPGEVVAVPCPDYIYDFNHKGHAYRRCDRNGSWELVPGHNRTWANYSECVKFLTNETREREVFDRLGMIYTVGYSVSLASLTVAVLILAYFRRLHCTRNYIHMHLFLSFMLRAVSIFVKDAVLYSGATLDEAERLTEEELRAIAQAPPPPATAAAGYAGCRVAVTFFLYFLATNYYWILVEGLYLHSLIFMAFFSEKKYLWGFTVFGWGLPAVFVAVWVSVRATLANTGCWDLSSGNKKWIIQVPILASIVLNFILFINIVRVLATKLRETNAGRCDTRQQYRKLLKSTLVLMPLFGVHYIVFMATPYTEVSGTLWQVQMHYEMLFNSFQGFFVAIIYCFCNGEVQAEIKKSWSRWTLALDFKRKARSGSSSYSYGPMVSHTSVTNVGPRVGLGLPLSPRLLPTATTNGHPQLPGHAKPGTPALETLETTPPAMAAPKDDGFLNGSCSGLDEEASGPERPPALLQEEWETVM
T1 sequence (P37173 23-567): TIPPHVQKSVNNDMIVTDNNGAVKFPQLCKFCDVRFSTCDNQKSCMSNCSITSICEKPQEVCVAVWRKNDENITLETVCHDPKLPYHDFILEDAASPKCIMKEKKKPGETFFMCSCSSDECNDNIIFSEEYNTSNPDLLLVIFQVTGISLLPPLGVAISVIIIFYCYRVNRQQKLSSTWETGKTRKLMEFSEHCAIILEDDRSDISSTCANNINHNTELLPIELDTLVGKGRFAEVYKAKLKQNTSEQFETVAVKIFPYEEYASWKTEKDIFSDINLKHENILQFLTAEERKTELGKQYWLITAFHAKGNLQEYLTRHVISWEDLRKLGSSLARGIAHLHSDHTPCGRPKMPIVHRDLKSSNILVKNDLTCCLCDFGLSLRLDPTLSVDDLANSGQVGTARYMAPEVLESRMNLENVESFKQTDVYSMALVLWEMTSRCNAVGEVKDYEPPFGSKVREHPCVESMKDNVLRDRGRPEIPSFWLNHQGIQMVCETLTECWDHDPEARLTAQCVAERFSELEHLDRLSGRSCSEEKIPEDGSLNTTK

Take “PTH: Parathyroid hormone ligand, form not stated at the place; figure legends give PTH (1-84) or PTH (1-34)”: in the assay on LRP5/6, the “peak of LRP5/6 phosphorylation after PTH injection” value was 8 h and the “start of LRP5/6 phosphorylation after PTH injection” value was determined as 2 h. Also, in the assay on LRP5/6 (24 hours), the “LRP5/6 phosphorylation at 24 hours” value is “disappearing”. For the same substance, in the assay on LRP5/6 (data not shown), the “phosphorylation of LRP5/6 in preosteoblasts/osteoblasts at the surface of trabecular bone” value was “enhanced phosphorylation of LRP5/6” and the “total LRP5/6 protein level in osteoblasts of rat tibia bone” value is “remained unchanged”. The “cytosolic and nuclear β-catenin protein levels” value in the assay with β-catenin is “stimulates protein levels of β-catenin in both the cytoplasm and the nucleus in a concentration and time dependent manner”. Moreover, in assay [1], the “interaction of PTH1R-HA with Flag-TβRII” value is recorded as “enhanced”. For the same substance, the “LRP5 phosphorylation (PPPSP)” value in the assay with LRP5 is recorded as “dramatically stimulated LRP5 phosphorylation”. The “LRP6 phosphorylation at the PPPSP motif” value in the assay with LRP6 [2] was “rapidly induced LRP6 phosphorylation at the PPPSP motif”. Also, the “phosphorylation of LRP6, PTH alone” value in the assay with LRP6 [3] is “much weaker stimulation”.
